Among the data in ChEMBL document CHEMBL1127116, “Synthesis and structure-activity relationships of a novel series of non-peptide AT2-selective angiotensin II receptor antagonists” (Bioorg Med Chem Lett, 1993) are IC50, half-life and bioavailability values, retold here.

The target in data set [1] is T1, Type-1 angiotensin II receptor (Oryctolagus cuniculus, UniProt P34976).
T1 sequence (P34976 whole entry): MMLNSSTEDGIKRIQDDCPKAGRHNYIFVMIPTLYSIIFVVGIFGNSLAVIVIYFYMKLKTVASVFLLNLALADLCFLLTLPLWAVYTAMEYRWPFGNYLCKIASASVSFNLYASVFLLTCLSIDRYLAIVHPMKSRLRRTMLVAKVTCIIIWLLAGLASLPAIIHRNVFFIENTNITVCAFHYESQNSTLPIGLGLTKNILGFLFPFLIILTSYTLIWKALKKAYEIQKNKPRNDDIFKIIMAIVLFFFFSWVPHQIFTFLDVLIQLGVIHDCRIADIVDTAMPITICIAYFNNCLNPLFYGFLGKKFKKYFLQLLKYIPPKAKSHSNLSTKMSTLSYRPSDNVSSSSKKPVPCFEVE
Briefly: Inhibition of Angiotensin II receptor, type 1 in rabbit aorta using [125I-Sar1,Ile8] angiotensin II binding assay. It is filed as tissue-based.

For data set [2], the target named is T2, Type-2 angiotensin II receptor (Rattus norvegicus, UniProt P35351).
T2 sequence (P35351 whole entry): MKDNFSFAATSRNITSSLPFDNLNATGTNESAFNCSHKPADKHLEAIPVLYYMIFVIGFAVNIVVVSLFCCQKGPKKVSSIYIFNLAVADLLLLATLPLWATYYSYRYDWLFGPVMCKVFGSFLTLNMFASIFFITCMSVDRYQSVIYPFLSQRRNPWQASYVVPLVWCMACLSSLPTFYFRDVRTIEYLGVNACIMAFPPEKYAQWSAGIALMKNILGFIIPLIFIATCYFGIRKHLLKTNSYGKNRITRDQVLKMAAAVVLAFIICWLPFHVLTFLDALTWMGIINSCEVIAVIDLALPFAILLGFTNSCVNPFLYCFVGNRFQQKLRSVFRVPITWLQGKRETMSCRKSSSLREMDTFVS
Kind of data set: Inhibition of Angiotensin II receptor, type 2 in rat midbrain using [125I]-Sar1,Ile8 angiotensin II binding assay.

Data set [3] is described as follows: Half life in rats. The settings on record: rat, in vivo. In kind it is ADME, organism-based.
A short description of data set [4]: Oral bioavailability in rat. The settings on record: in vivo. In kind it is ADME, organism-based.
The target in data set [5] is T1, Type-1 angiotensin II receptor. Kind of data set: Inhibition of angiotensin Angiotensin II receptor, type 1 in rabbit aorta using [125I-Sar1,Ile8] angiotensin II binding assay. It is filed as tissue-based.
The target of data set [6] is T2, Type-2 angiotensin II receptor. Kind of data set: Compound was evaluated for inhibition of Angiotensin II receptor, type 2 in rat midbrain AT2 assay. It is filed as tissue-based.

For orientation: IC50 means the point on the concentration scale where inhibition reaches its midpoint. The low end stands for greater potency in that assay, the high end for weaker potency in that assay. Regarding `CC(C)N(C(=O)N1CCN(C(=O)N(c2ccccc2)c2ccccc2)[C@H](C(=O)O)C1)C(C)C`, the IC50 in data set [1] is greater than 10 µM; in data set [2], 0.04 µM.
In general, half-life refers to how long it takes for the measured level to halve. Low readings indicate fast loss, high ones slow loss. For orientation: bioavailability means dose-corrected exposure relative to a reference, in per cent. In turn, `O=C(O)[C@@H]1CN(C(=O)N(c2ccccc2)c2ccccc2)CCN1C(=O)N(c1ccccc1)c1ccccc1` registered a half-life in data set [3] greater than 6 h. The same compound registered a bioavailability in data set [4] of 21%. This compound also gave an IC50 in data set [1] greater than 100 µM.
For `CC1CN(C(=O)N(c2ccccc2)c2ccccc2)CCN1C(=O)N(c1ccccc1)c1ccccc1` (stereo unspecified), the half-maximal inhibitory concentration (IC50) was greater than 100 µM in data set [5] and 0.015 µM in data set [2].
Regarding `CCCCCN(CCCCC)C(=O)N1CCN(C(=O)N(c2ccccc2)c2ccccc2)[C@H](C(=O)OC)C1`, the IC50 in data set [1] was determined as 21 µM; in data set [2], 0.012 µM.
In the same order, the values of `CCCCCN(CCCCC)C(=O)N1CCN(C(=O)N(c2ccccc2)c2ccccc2)C[C@H]1C(=O)O` are 25 µM and 0.023 µM.
`O=C(N1CCN(C(=O)N(c2ccccc2)c2ccccc2)CC1)N(c1ccccc1)c1ccccc1`: the IC50 in data set [5] was greater than 100 µM; in data set [2], 0.037 µM.
For `CCCCCN(CCCCC)C(=O)N1CCN(C(=O)C(c2ccccc2)c2ccccc2)C(C(=O)O)C1` (stereo unspecified), the IC50 in data set [1] was greater than 100 µM; in data set [2] it was 0.0011 µM.
With `CCCCCN(CCCCC)C(=O)N1CCN(C(=O)N(c2ccccc2)c2cccc(C)c2)[C@H](C(=O)O)C1`, the IC50 in data set [5] was found to be 10 µM; in data set [2], 0.0007 µM.
On to `COc1ccc(Cn2cnc3c2C[C@@H](C(=O)O)N(C(=O)C(c2ccccc2)c2ccccc2)C3)cc1C`, for which the IC50 in data set [6] was 0.038 µM.
In the case of `CCCCCN(CCCCC)C(=O)N1CCN(C(=O)N(c2ccccc2)c2ccccc2)[C@H](CO)C1`, the values for the IC50 in data set [1] and in data set [2] were greater than 10 µM and 0.03 µM, respectively.
With `CCCCCN(CCCCC)C(=O)N1CCN(C(=O)N(c2ccccc2)c2ccc(O)cc2)[C@H](C(=O)O)C1`, the IC50 was found to be 10 µM in data set [5] and 0.23 µM in data set [2].
In the same order, the values of `CCCCCN(CCCCC)C(=O)N1CCN(C(=O)N(c2ccccc2)c2ccccc2)CC1` are 12.5 µM and 0.07 µM.
On to `CCCCCN(CCCCC)C(=O)N1CCN(C(=O)N(c2ccccc2)c2ccccc2)[C@@H](C(=O)O)C1`, for which the results for the IC50 in data set [1] and in data set [2] were greater than 10 µM and 0.0045 µM, respectively.
Turning to `CCCCCN(CCCCC)C(=O)N1CCN(C(=O)N(c2ccccc2)c2cccc(Cl)c2)[C@H](C(=O)O)C1`, the IC50 in data set [5] was 5.1 µM; in data set [2] it was 0.0004 µM.
Consider `CCCCCN(C(=O)N1CCN(C(=O)N(c2ccccc2)c2ccccc2)C[C@H]1C(=O)O)c1ccccc1`, for which the IC50 in data set [1] came out at 45 µM; in data set [2] it was 0.02 µM.
In the same order, the values of `CCCCCN(CCCCC)C(=O)N1CCN(C(=O)N(CCCCC)CCCCC)[C@H](C(=O)O)C1` are greater than 30 µM and 0.082 µM.
As to `CCCCCN(CCCCC)C(=O)N1CCN(C(=O)N(c2ccccc2)c2ccc(Br)cc2)[C@H](C(=O)O)C1`, the IC50 in data set [5] came to 5.4 µM; in data set [2], 0.0027 µM.
In the same order, the values of `CCCCCN(CCCCC)C(=O)N1CCN(C(=O)N(c2ccccc2)c2ccc(I)cc2)[C@H](C(=O)O)C1` are 8.5 µM and 0.007 µM.
The corresponding values for `CCCCCN(CCCCC)C(=O)N1CCN(C(=O)N(c2ccccc2)c2cccc(OC)c2)[C@H](C(=O)O)C1` are greater than 10 µM and 0.0078 µM.
In the same order, the values of `CC1CN(C(=O)N(c2ccccc2)c2ccccc2)C(C)CN1C(=O)N(c1ccccc1)c1ccccc1` (stereo unspecified) are greater than 100 µM and 0.01 µM.
As to `CCCCCN(CCCCC)C(=O)N1CCN(C(=O)N(c2ccccc2)c2ccccc2)[C@H](CCO)C1`, the values for the IC50 in data set [5] and in data set [2] were greater than 10 µM and 0.015 µM, respectively.
In the same order, the values of `CCCCCN(CCCCC)C(=O)N1CCN(C(=O)N(c2ccccc2)c2ccccc2)[C@H](C(=O)O)C1` are 39 µM and 0.0014 µM.
Take `CCCCCN(C)C(=O)N1CCN(C(=O)N(c2ccccc2)c2ccccc2)[C@H](C(=O)O)C1`: the IC50 in data set [1] is greater than 30 µM; in data set [2], 0.015 µM.
As to `CCCCCN(CCCCC)C(=O)N1CCN(C(=O)N(c2ccccc2)c2ccc(C(=O)OCC)cc2)[C@H](C(=O)O)C1`, the half-inhibitory concentration (IC50) was greater than 10 µM in data set [5] and 0.035 µM in data set [2].
In the same order, the values of `CCCCCN(CCCCC)C(=O)N1CCN(C(=O)N(c2ccccc2)c2ccc(C(=O)O)cc2)[C@H](C(=O)O)C1` are 1.4 µM and 0.18 µM.
As to `CN(C(=O)N1CCN(C(=O)N(c2ccccc2)c2ccccc2)[C@H](C(=O)O)C1)c1ccccc1`, the figures for the IC50 in data set [1] and in data set [2] were greater than 10 µM and 0.17 µM, respectively.
As to `CCCCCN(CCCCC)C(=O)N1CCN(C(=O)N(c2ccccc2)c2cccc(Br)c2)[C@H](C(=O)O)C1`, the IC50 in data set [5] came out at 59 µM; in data set [2] it was 0.0006 µM.
On to `CCCCCN(CCCCC)C(=O)N1CCN(C(=O)N(c2ccccc2)c2ccccc2)C(C(=O)O)C1` (stereo unspecified), for which the figures for the IC50 in data set [1] and in data set [2] were greater than 30 µM and 0.0017 µM, respectively.
